This is an account of results in patent US20260216294A1, “BETA 2-ADRENERGIC RECEPTOR AGONISTS FOR TREATMENT OR PREVENTION OF MUSCLE WASTING” (ATROGI AB, priority 2023, published 2026).

Assay [1] relates to L6-myotubes. As to the kind of experiment: Glucose uptake in differentiated L6-myotubes (Biological Example 2). The note with it: for Emax at 10 µM: read-out: Biological example 2 (GU). The assay is classed as cell-based. The procedure, abridged: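 Uptake was quantified as radioactivity in 0.2 M NaOH lysates after a 10 min pulse of 50 nM ^3H-2-deoxyglucose. The pulse followed two agonist exposures at 1×10^−5 M final (isoprenaline or test compound): 1 h 40 min, then 20 min in glucose-free medium after washing. L6 myotubes had been starved overnight in medium with 0.5% fatty-acid-free BSA.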

For assay [2], the system named is L6-myotubes. As to the kind of experiment: Measurement of intracellular cAMP levels in differentiated L6-myotubes (Biological Example 3). The assay is classed as cell-based. The settings on record: for Emax at 10 µM: 0.25 h. The procedure, abridged:
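Intracellular cAMP quantified by AlphaScreen after ethanol extraction and lysis of L6 myotubes. Cells were serum-starved overnight, then exposed for 15 min to compound (final 1×10^−5 M) or isoprenaline in IBMX-containing (1 mM) HBSS buffer, pH 7.4.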

Where [3] appears, read: glucose uptake in differentiated L6-myotubes, compound at 10 μM, activity relative to isoproterenol at 10 μM.
The mark [4] stands for this setting: intracellular cAMP in differentiated L6-myotubes, compound at 10 μM, activity relative to isoproterenol at 10 μM.
Where [5] appears, read: glucose uptake, compound at 10 μM relative to isoproterenol at 10 μM.
Setting [6] is: intracellular cAMP, compound at 10 μM relative to isoproterenol at 10 μM.

Turning to `COc1ccc(C[C@@]2(C)CC[C@H]([C@@H](O)c3cccc(F)c3)N2)cc1` [Compound 365, (S)-{(2R,5R)-5-[(p-methoxyphenyl)methyl]-5-methyl-2-pyrrolidinyl}(m-fluorophenyl)methanol], the Emax at 10 µM in assay [1] (setting [3]) was over 75%; in assay [2] (setting [4]) it was under 25%.
Taken in the same sequence, the figures for `CC(C)(CC[C@H]1CC[C@H](N)CC1)NC[C@H](O)c1cncc(F)c1` [Compound 358] were 25 to 50% and under 25%.
Turning to `CCC[C@H]1CC[C@@H]([C@H](O)c2cccc(F)c2)N1` [Compound 130, (R)-[(2S,5S)-5-propyl-2-pyrrolidinyl](m-fluorophenyl)methanol], the Emax at 10 µM in assay [1] (setting [5]) was 25 to 50%; in assay [2] (setting [6]), under 25%.
In the case of `CC(C)(CC[C@H]1CC[C@H](NS(C)(=O)=O)CC1)NC[C@H](O)c1cncc(F)c1` [Compound 362, (R)-2-{1,1-dimethyl-3-[(1r,4R)-4-(mesylamino)cyclohexyl]propylamino}-1-(5-fluoro-3-pyridyl)-1-ethanol], the values for the Emax at 10 µM in assay [1] (setting [3]) and in assay [2] (setting [4]) were 50 to 75% and under 25%, respectively.
For `COC(=O)[C@H]1CC[C@@H](CC(C)(C)NC[C@H](O)c2cccc(F)c2)CC1` [Compound 327, methyl (1S,4s)-4-{2-[(R)-2-(m-fluorophenyl)-2-hydroxyethylamino]-2-methylpropyl} cyclohexanecarboxylate], in that order: over 75% and under 25%.
Take `Oc1ccc(C(O)CNCC2CCCCC2)cc1` (stereo not drawn) [Compound 6, 2-[(cyclohexylmethyl)amino]-1-(p-hydroxyphenyl)-1-ethanol]: the Emax at 10 µM in assay [1] (setting [5]) is over 75%; in assay [2] (setting [6]), under 25%.
As for `CC(=O)N[C@H]1CC[C@@H](CNC[C@H](O)c2cccc(F)c2)CC1` [Compound 307], the Emax at 10 µM in assay [1] (setting [3]) is 50 to 75%; in assay [2] (setting [4]), under 25%.
`CCCCNCC(O)c1cc(Cl)c(N)c(Cl)c1` (stereo not drawn) [Compound 29, 1-(4-amino-3,5-dichlorophenyl)-2-(butylamino)-1-ethanol]: the Emax at 10 µM in assay [1] (setting [5]) was over 75%; in assay [2] (setting [6]), 25 to 50%.
For `Oc1ccc(C(O)CNCCC2CCCCC2)cc1` (stereo not drawn) [Compound 16, 2-(2-cyclohexylethylamino)-1-(p-hydroxyphenyl)-1-ethanol], in that order: 25 to 50% and under 25%.
Turning to `CC1(C)C[C@@H]([C@H](O)c2cccc(F)c2)N1` [Compound 200, (R)-[(S)-4,4-dimethyl-2-azetidinyl](m-fluorophenyl)methanol], the Emax at 10 µM in assay [1] (setting [3]) and in assay [2] (setting [4]) was under 25% each time.
In the case of `Oc1ccc(C(O)CNCC2CC2)cc1` (stereo not drawn) [Compound 3, p-{2-[(cyclopropylmethyl)amino]-1-hydroxyethyl}phenol], the Emax at 10 µM in assay [1] (setting [5]) is 50 to 75%; in assay [2] (setting [6]) it was under 25%.
As for `CC12CC(C1)[C@H]([C@H](O)c1cccc(Cl)c1)N2` [Compound 206], the values for the Emax at 10 µM in assay [1] (setting [3]) and in assay [2] (setting [4]) were over 75% and under 25%, respectively.
For `CC(C)(NC[C@H](O)c1cccc(F)c1)[C@H]1CC[C@H](N)CC1` [Compound 381], in that order: 50 to 75% and under 25%.
Taken in the same sequence, the figures for `CN([C@H]1CC[C@@H](CC(C)(C)NC[C@H](O)c2cccc(F)c2)CC1)S(C)(=O)=O` [Compound 498, (R)-2-{1,1-dimethyl-2-[(1s,4S)-4-(N-mesyl-N-methylamino)cyclohexyl]ethylamino}-1-(m-fluorophenyl)-1-ethanol] were 25 to 50% and under 25%.
For `CC12CC(C1)[C@@H]([C@@H](O)c1cccc(Cl)c1)N2` [Compound 207], in that order: 25 to 50% and under 25%.
As for `CC1(C)C[C@H]([C@H](O)c2cncc(F)c2)N1` [Compound 214], the values for the Emax at 10 µM in assay [1] (setting [3]) and in assay [2] (setting [4]) were over 75% and under 25%, respectively.
As to `CC(=O)N(Cc1ccccc1)[C@H]1CC[C@H](C[C@@H]2CC[C@H]([C@H](O)c3cccc(F)c3)N2)CC1` [Compound 482, N-[(1S,4r)-4-({(2S,5R)-5-[(R)-(m-fluorophenyl) hydroxymethyl]-2-pyrrolidinyl}methyl)cyclohexyl]-N-benzylacetamide], the Emax at 10 µM in assay [1] (setting [3]) and in assay [2] (setting [4]) was under 25% in each case.
In the case of `CO[C@H]1CC[C@@H](CCC(C)(C)NC[C@H](O)c2cncc(F)c2)CC1` [Compound 266], the Emax at 10 µM was over 75% in assay [1] (setting [3]) and under 25% in assay [2] (setting [4]).
For `CO[C@H]1CC[C@H](C[C@@H]2CC[C@H]([C@H](O)c3cncc(F)c3)N2)CC1` [Compound 333], in that order: 25 to 50% and under 25%.
As to `CCC[C@@H]1CCC[C@H]([C@H](O)c2ccc(F)cc2)N1` [Compound 94], the results for the Emax at 10 µM in assay [1] (setting [5]) and in assay [2] (setting [6]) were 50 to 75% and under 25%, respectively.
In the case of `CC1(C)CCC[C@H]([C@H](O)c2ccccc2F)N1` [Compound 177, (R)-[(R)-6,6-dimethyl-2-piperidyl](o-fluorophenyl)methanol], the Emax at 10 µM in assay [1] (setting [5]) was 50 to 75%; in assay [2] (setting [6]), under 25%.
Turning to `CC1(C)CCC[C@H]([C@@H](O)c2cccc(Cl)c2)N1` [Compound 164], the Emax at 10 µM in assay [1] (setting [5]) was 50 to 75%; in assay [2] (setting [6]), under 25%.
With `CO[C@H]1CC[C@H](CCC23CCC([C@@H](O)c4cccc(F)c4)(CC2)N3)CC1` [Compound 411], the “Biological example 2 (GU)” value in assay [1] (setting [3]) is reported as “+++ (If a compound at 10 μM shows activity of more than 75% of that of isoproterenol at 10 μM, the activity is denoted with +++)”. Moreover, in assay [2] (setting [4]), the “Biological example 3 (CAMP)” value is “++ (if it is between 75 and 50% it is denoted with ++)”.
Regarding `CCCC(C)NCC(O)c1ccc(Cl)c(O)c1` (stereo not drawn) [Compound 35, 1-(4-chloro-3-hydroxyphenyl)-2-(1-methylbutylamino)-1-ethanol], the results for the Emax at 10 µM in assay [1] (setting [5]) and in assay [2] (setting [6]) were over 75% and under 25%, respectively.
Regarding `CC(C)(C[C@H]1CC[C@H](O)CC1)NC[C@H](O)c1cccc(F)c1` [Compound 300, (R)-2-{1,1-dimethyl-2-[(1r,4R)-4-hydroxycyclohexyl]ethylamino}-1-(m-fluorophenyl)-1-ethanol], the figures for the Emax at 10 µM in assay [1] (setting [3]) and in assay [2] (setting [4]) were over 75% and under 25%, respectively.
`CCC[C@H]1CCC[C@H]([C@H](O)c2cncc(F)c2)N1` [Compound 140]: the Emax at 10 µM in assay [1] (setting [5]) and in assay [2] (setting [6]) was under 25% each time.
With `CC12CC(C1)[C@H]([C@H](O)c1cncc(F)c1)N2` [Compound 220, (R)-{(R)-1-methyl-2-azabicyclo[[2.1.1]]hex-3-yl}(5-fluoro-3-pyridyl)methanol], the Emax at 10 µM was over 75% in assay [1] (setting [3]) and under 25% in assay [2] (setting [4]).
Regarding `CCCCNC[C@H](O)c1cnc(N)s1` [Compound 75, (S)-1-(2-amino-1,3-thiazol-5-yl)-2-(butylamino)-1-ethanol], the Emax at 10 µM is 25 to 50% in assay [1] (setting [5]) and under 25% in assay [2] (setting [6]).
Taken in the same sequence, the figures for `Oc1ccc(C(O)CNCCC2CC2)cc1` (stereo not drawn) [Compound 24, p-[2-(2-cyclopropylethylamino)-1-hydroxyethyl]phenol] were 50 to 75% and under 25%.
Turning to `O[C@@H](c1cccc(F)c1)[C@H]1CC[C@@H](Cc2ccc(Cl)cc2)N1` [Compound 391, (S)-{(2R,5S)-5-[(p-chlorophenyl)methyl]-2-pyrrolidinyl}(m-fluorophenyl)methanol], the Emax at 10 µM was 50 to 75% in assay [1] (setting [3]) and under 25% in assay [2] (setting [4]).
